Earlier results as cited in patent US20210322384A1, “Method of Treatment for Ketamine Infusion” (Eleusis therapeutics us, inc., priority 2018, published 2021).
Like-named read-outs stand apart in the source and are kept apart here.

Experiments:
[1] = test system: patients; settings: for improvement in MADRS score relative to standard antidepressants alone: plus standard antidepressants
[2] = test system: patients; settings: current state of the art ketamine treatments; industry standard

SMILES: CN[C@]1(c2ccccc2Cl)CCCCC1=O [esketamine]
- reduction in MADRS score relative to control group ([1]; after 25 days): did not result in any significant reduction
- improvement in MADRS score relative to standard antidepressants alone ([1]; at 24 hours after intranasal 84 mg): significantly greater improvement
- improvement in MADRS score relative to standard antidepressants alone ([1]; at four hours after intranasal 84 mg): significantly greater improvement
- side effects of nasal spray protocol ([1]; intranasal 84 mg aerosol spray): significant side effects

SMILES: CNC1(c2ccccc2Cl)CCCCC1=O (centres unmarked) [ketamine]
- response rate in alleviating depression symptoms [2]: ~70%
